Patent US5510469A, “2-acyloxy-4-morpholinyl anthracyclines” (priority 1990, dated 1996)
Converted amounts (≈) assume the structure as drawn. Where two headings read alike, the source gives them in different places.

How the values were obtained:
LoVo cells = experiment: Colony assay (cytotoxicity after 4 hr treatment), LoVo cells; type: cell-based; conditions: Homo sapiens, read-out: IC50 (concentration inhibiting 50% colony growth), LoVo
Protocol: (§1) 3'-deamino-3' 2-benzoyl-4-morpholinyl!doxorubicin (1a) was tested "in vitro" against LoVo and LoVo-resistant-doxorubicin (LoVo/DX) cells using a single cell plating technique after 4 hr treatment (Colony assay). The 50% inhibition concentration (IC50) was calculated using concentration-response curves. Compound 1a was tested in comparison with Doxorubicin.
(§2) Cytotoxicity after 4 hr treatment IC50 = ng/ml^(1)
(§3) ^(1) IC50 = concentration inhibiting 50% colony growth

LoVo/DX cells = experiment: Colony assay (cytotoxicity after 4 hr treatment), LoVo-resistant-doxorubicin (LoVo/DX) cells; type: cell-based; conditions: for IC50: read-out: IC50 (concentration inhibiting 50% colony growth), LoVo/DX; for R.I. = Resistance Index = (IC50 LoVo/DX)/(IC50 LoVo): ratio LoVo/DX to LoVo
Protocol: as §1, §2, §3
^(2) R.I. = Resistance Index = (IC50 LoVo/DX)/(IC50 LoVo)

[1] = test system: P388/DX (Johnson) Leukemias; experiment: Antitumor activity in vivo against P388 murine leukemia resistant to Doxorubicin (P388/DX, Johnson); conditions: P388/DX 10^5 cells/mouse i.v. in CDF mice; treatment on day 1; at optimal dose: 1a 1.2 mg/kg, Doxorubicin 13-16.9 mg/kg
Protocol: Antitumor activity against P388/DX
^(1) 10^5 cells/mouse (P388/DX, Johnson) transplanted i.v. in CDF
Treatment on day 1 after inoculation of tumor.
^(3) Median survival time; % over […] controls.
Compound 1a was evaluated "in vivo" against P388 murine Leukemias resistant to Doxorubicin, in comparison with Doxorubicin.

Row | Compound | IC50 (LoVo cells; LoVo, 4 h) | IC50 (LoVo/DX cells; LoVo/DX, 4 h) | R.I. = Resistance Index = (IC50 LoVo/DX)/(IC50 LoVo) (LoVo/DX cells; 4 hr treatment) | T/C % (median survival time; % over treated controls) [1] | IC50 (LoVo cells; LoVo cells, 4 hr treatment, colony assay) | IC50 (LoVo/DX cells; LoVo/DX cells, 4 hr treatment, colony assay)
1 | COc1cccc2c1C(=O)c1c(O)c3c(c(O)c1C2=O)C[C@@](O)(C(=O)CO)C[C@@H]3O[C@H]1C[C@H](N2CCOC(OC(=O)c3ccccc3)C2)[C@H](O)[C@H](C)O1 (some centres unmarked) [Compound 1a] | 0.0069 µg/mL (≈ 0.0094 µM) | 0.027 µg/mL (≈ 0.0368 µM) | 3.9 | 175% |  | 
2 | COc1cccc2c1C(=O)c1c(O)c3c(c(O)c1C2=O)C[C@@](O)(C(=O)CO)C[C@@H]3O[C@H]1C[C@H](N)[C@H](O)[C@H](C)O1 [Doxorubicin, doxorubicin] |  |  | 36 | 86-100% | 0.06 µg/mL (≈ 0.11 µM) | 2.16 µg/mL (≈ 3.97 µM)
